Experimental data from PubChem BioAssay AID1195 (EPA DSSTox, 2008).

Tested on: human maximum recommended daily dose, FDA database
Assay: DSSTox (FDAMDD) FDA Maximum (Recommended) Daily Dose Database
Conditions: hits give low values
Procedure, shortened: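 MRDD values come from clinical trials with daily oral dosing, usually for 3–12 months, for the average adult, in mg/day converted to mg/kg-bw/day assuming 60 kg. Antineoplastic mg/m2 doses are divided by 37. Activity score maps log10(1/MRDD mmol) onto 1–100.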

[1] = TherapeuticCategory: glucocorticoid
[2] = TherapeuticCategory: antihypertensive
[3] = TherapeuticCategory: antimalarial
[4] = TherapeuticCategory: antineoplastic
[5] = TherapeuticCategory: analgesic, anti inflammatory
[6] = TherapeuticCategory: antipsychotic
[7] = TherapeuticCategory: antibacterial

Compound: CCCC(=O)O[C@]1(C(=O)COC(=O)CC)[C@@H](C)C[C@H]2[C@@H]3CCC4=CC(=O)C=C[C@]4(C)[C@@]3(F)[C@@H](O)C[C@@]21C
- maximum recommended daily dose (mmol/kg-bw/day) [1]: 0.000289

Compound: NC(=O)C1CCN(CCCN2c3ccccc3Sc3ccc(Cl)cc32)CC1
- maximum recommended daily dose (mmol/kg-bw/day) (TherapeuticCategory: antiemetic): 0.000622

Compound: C#CCN(C)Cc1ccccc1
- maximum recommended daily dose (mmol/kg-bw/day) [2]: 0.0209

Compound: CCC(C)(C)N=C(N)NC#N
- maximum recommended daily dose (mmol/kg-bw/day) [2]: 0.0674

Compound: CO[C@H]1C[C@@H]2CC[C@@H](C)[C@@](O)(O2)C(=O)C(=O)N2CCCC[C@H]2C(=O)O[C@H]([C@H](C)C[C@@H]2CC[C@@H](O)[C@H](OC)C2)CC(=O)[C@H](C)/C=C(\C)[C@@H](O)[C@@H](OC)C(=O)[C@H](C)C[C@H](C)/C=C/C=C/C=C/1C
- maximum recommended daily dose (mmol/kg-bw/day) (TherapeuticCategory: immunosuppressant): 0.000148

Compound: CCc1nc(N)nc(N)c1-c1ccc(Cl)cc1
- maximum recommended daily dose (mmol/kg-bw/day) [3]: 0.00503

Compound: COc1cc(NCc2ccc3nc(N)nc(N)c3c2C)cc(OC)c1OC
- maximum recommended daily dose (mmol/kg-bw/day) [4]: 0.0033

Compound: CC(=O)NO
- maximum recommended daily dose (mmol/kg-bw/day) (TherapeuticCategory: antiurolithic, antibacterial adjunct): 0.222

Compound: CC(=O)Oc1ccc(C2(c3ccc(OC(C)=O)cc3)C(=O)Nc3ccccc32)cc1
- maximum recommended daily dose (mmol/kg-bw/day) (TherapeuticCategory: cathartic): 0.00208

Compound: CCCC1C(=O)N2C(N(C)C)=Nc3ccc(C)cc3N2C1=O (configuration not stated)
- maximum recommended daily dose (mmol/kg-bw/day) [5]: 0.0892

Compound: C[C@H]1C[C@H]2[C@@H]3CCC4=CC(=O)C=C[C@]4(C)[C@@]3(F)[C@@H](O)C[C@]2(C)[C@@]1(OC(=O)c1ccccc1)C(=O)CO
- maximum recommended daily dose (mmol/kg-bw/day) [1]: 0.000302

Compound: CN(C)CCOC(C)(c1ccccc1)c1ccc(Cl)cc1 (configuration not stated)
- maximum recommended daily dose (mmol/kg-bw/day) (TherapeuticCategory: antiamebic): 0.123

Compound: C[C@H]1C[C@@H]2[C@H]([C@@H](O)C[C@@]3(C)[C@H]2CC[C@]3(O)C(=O)COC(=O)CCCCCCC(=O)N(C)CCS(=O)(=O)O)[C@@]2(C)C=CC(=O)C=C12
- maximum recommended daily dose (mmol/kg-bw/day) [1]: 0.0061

Compound: CC(C)N=C(N)/N=C(\N)Nc1ccc(Cl)c(Cl)c1
- maximum recommended daily dose (mmol/kg-bw/day) [3]: 0.00116

Compound: CC(C(=O)O)c1ccc2oc(-c3ccc(Cl)cc3)nc2c1 (configuration not stated)
- maximum recommended daily dose (mmol/kg-bw/day) [5]: 0.0331

Compound: Cc1cc2c(s1)Nc1ccccc1N=C2N1CCN(C)CC1
- maximum recommended daily dose (mmol/kg-bw/day) [6]: 0.0008

Compound: O=S(O)CNc1ccc(S(=O)(=O)c2ccc(NCS(=O)O)cc2)cc1
- maximum recommended daily dose (mmol/kg-bw/day) [7]: 0.0111

Compound: Oc1cc(O)c2c(c1)O[C@H](c1ccc(O)c(O)c1)[C@@H](O)C2
- maximum recommended daily dose (mmol/kg-bw/day) (TherapeuticCategory: hepatoprotectant, antidiarrheal): 0.115

Compound: CN(CC(=O)N1CCOCC1)Cc1c(Cl)cccc1NC(=O)c1ccccc1
- maximum recommended daily dose (mmol/kg-bw/day) (TherapeuticCategory: antitussive, respiratory stimulant): 0.0199

Compound: OC(CCN1CCCCC1)(c1ccccc1)C1CCCCC1 (configuration not stated)
- maximum recommended daily dose (mmol/kg-bw/day) (TherapeuticCategory: anticholinergic, antiparkinsonian): 0.000829

Compound: CN(C)C(=O)Oc1ccc[n+](C)c1
- maximum recommended daily dose (mmol/kg-bw/day) (TherapeuticCategory: cholinergic): 0.0766

Compound: CNC(=O)c1c(I)c(NC(=O)CCCCC(=O)Nc2c(I)c(C(=O)O)c(I)c(C(=O)NC)c2I)c(I)c(C(=O)O)c1I
- maximum recommended daily dose (mmol/kg-bw/day) (TherapeuticCategory: diagnostic aid): 0.0798

Compound: CC(C)C[C@H]1C(=O)N2CCC[C@H]2[C@]2(O)O[C@](NC(=O)[C@@H]3C=C4c5cccc6[nH]c(Br)c(c56)C[C@H]4N(C)C3)(C(C)C)C(=O)N12
- maximum recommended daily dose (mmol/kg-bw/day) (TherapeuticCategory: enzyme inhibitor, antiparkinsonian): 0.00255

Compound: CC(=O)NS(=O)(=O)c1cc(N)ccc1S(=O)(=O)c1ccc(N)cc1
- maximum recommended daily dose (mmol/kg-bw/day) [7]: 0.17

Compound: CC1CCN(CCCC(=O)c2ccc(F)cc2)CC1
- maximum recommended daily dose (mmol/kg-bw/day) (TherapeuticCategory: neuroleptic): 0.0253

Compound: Nc1nc(Cl)nc2c1ncn2[C@H]1C[C@H](O)[C@@H](CO)O1
- maximum recommended daily dose (mmol/kg-bw/day) [4]: 0.000315

Compound: CCC(=O)c1ccc2c(c1)N(CCCN1CCN(CCO)CC1)c1ccccc1S2
- maximum recommended daily dose (mmol/kg-bw/day) [6]: 0.0157

Compound: CN(C/C=C/C#CC(C)(C)C)Cc1cccc2ccccc12
- maximum recommended daily dose (mmol/kg-bw/day) (TherapeuticCategory: topical antifungal): 0.0926

Compound: OCCN1C[C@H](O)[C@@H](O)[C@H](O)[C@H]1CO
- maximum recommended daily dose (mmol/kg-bw/day) (TherapeuticCategory: antidiabetic): 0.0241

Compound: OCCOCCN1CCN(C(c2ccccc2)c2ccc(Cl)cc2)CC1 (configuration not stated)
- maximum recommended daily dose (mmol/kg-bw/day) (TherapeuticCategory: anxiolytic, antihistaminic): 0.0178

Compound: O=c1[nH]c(=O)n(C2CCCO2)cc1F (configuration not stated) (tested in a mixture with another compound)
- maximum recommended daily dose (mmol/kg-bw/day) [4]: 0.0641

Compound: Nc1nc(N)c2nc(-c3ccccc3)c(N)nc2n1
- maximum recommended daily dose (mmol/kg-bw/day) (TherapeuticCategory: diuretic): 0.0131

Compound: CN1C(=O)CC(c2ccccc2)C1=O (configuration not stated)
- maximum recommended daily dose (mmol/kg-bw/day) (TherapeuticCategory: anticonvulsant): 0.264

Compound: CC(=O)Nc1ccc(OC(=O)c2ccccc2OC(C)=O)cc1
- maximum recommended daily dose (mmol/kg-bw/day) (TherapeuticCategory: analgesic, antipyretic, anti inflammatory): 0.425

Compound: NC(=O)c1cc[n+](CC2=C(C(=O)[O-])N3C(=O)[C@@H](NC(=O)C(c4ccccc4)S(=O)(=O)O)[C@H]3SC2)cc1 (some centres not stated)
- maximum recommended daily dose (mmol/kg-bw/day) [7]: 0.188

Compound: NS(=O)(=O)c1cc2c(cc1Cl)NC(CSCc1ccccc1)=NS2(=O)=O
- maximum recommended daily dose (mmol/kg-bw/day) (TherapeuticCategory: diuretic, antihypertensive): 0.00771

Compound: CC1=CC(=O)c2ccccc2C1=O
- maximum recommended daily dose (mmol/kg-bw/day) (TherapeuticCategory: prothrombogenic vitamin): 0.000193
